# Results published in patent publication US4904660A, “Histidine derivatives as superior renin inhibitors” (Yamanouchi Pharmaceutical Co., Ltd., priority 1987, dated 1990).
# Target: T1, human plasma renin (Homo sapiens, UniProt P00797)
# T1 construct: Into human plasma; from tissue; host or cells: human plasma
# T1 sequence (P00797 67-406): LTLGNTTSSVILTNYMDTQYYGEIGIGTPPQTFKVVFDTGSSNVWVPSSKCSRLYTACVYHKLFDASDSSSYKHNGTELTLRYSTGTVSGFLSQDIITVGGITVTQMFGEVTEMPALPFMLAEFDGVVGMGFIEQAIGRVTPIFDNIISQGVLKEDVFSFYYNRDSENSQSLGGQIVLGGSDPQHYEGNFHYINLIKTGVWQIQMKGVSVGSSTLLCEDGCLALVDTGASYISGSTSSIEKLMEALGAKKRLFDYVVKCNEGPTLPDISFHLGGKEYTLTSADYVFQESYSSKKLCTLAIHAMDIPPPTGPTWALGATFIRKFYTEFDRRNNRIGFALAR
# Test: Inhibiting effect to human plasma renin
# Type: biochemical
# Settings: angiotensin I formation by radio-immunoassay, 37° C., 2 hours, pH4.6, read-out: IC50 /human plasma (50% inhibiting concentration)
# Method: (1) Inhibiting effect to human plasma renin.
# Into human plasma (250 μl) having 0.5 ng/ml/hr (37° C.)-angiotensin I forming activity was added 225 μl of an enzyme-inhibitor (BAL, […], pH4.6) and 25 μl of a solution of the test compound in dimethylsulfoxide, and the mixture was stirred. Some portion of the stirred mixture was subjected to incubation at 37° C. for 2 hours, and the rest of the mixture was left at 4° C. Taking 100 μl of each of the mixtures, by measuring the difference of the angiotensin I forming amount by radio-immunoassay at 37° C. and 4° C., the 50% inhibiting concentration IC50 (M) was calculated.
row,IC50 [nM],Structure (SMILES)
1,0.5,"Cn1nnnc1SCC(O)[C@H](CC1CCCCC1)NC(=O)[C@H](Cc1cnc[nH]1)NC(=O)C(CC(=O)N1CCOCC1)Cc1cccc2ccccc12 (stereo partly drawn) [Example 7, (2RS,3S)-3-[N-[1,4-dioxo-4-morpholino-2-(1-naphthylmethyl)butyl-L-histidylamino)]-4-cyclohexyl-1-(1-methyl-5-tetrazolylthio]-2-butanol]"
2,4,Cn1nnnc1SCC(O)[C@H](CC1CCCCC1)NC(=O)[C@H](Cc1cnc[nH]1)NC(=O)[C@H](Cc1ccccc1)NC(=O)OC(C)(C)C (stereo partly drawn) [Example 9]
3,4,CC(C)OC(=O)C(O)[C@H](CC1CCCCC1)NC(=O)[C@H](Cc1c[nH]cn1)NC(=O)C(CC(=O)N1CCOCC1)Cc1cccc2ccccc12 (stereo partly drawn) [Example 40]
